Here are results for ten compounds from US10004701B2, “Methods and compositions for treating infection” (UNIVERSITY OF ROCHESTER, priority 2012, dated 2018).

Structures can show the parent of a compound that is named as a salt. Where two headings read alike, the source gives them in different places.

Assay in all cases: AK assay 384-well format, Prestwick library screening
Assay [1] concerns E. faecium. In kind it is cell-based, Enterococcus faecium. Conditions: 50 μM final drug concentration; for fold induction at 50 µM: Enterococcus faecium, 3 h.
Assay [2] relates to S. aureus strain USA300-0114. Type of assay: cell-based, Staphylococcus aureus. Conditions: 50 μM final drug concentration; for fold induction at 50 µM: Staphylococcus aureus, USA300, 3 h.
Assay [3] deals with K. pneumoniae. Type of assay: cell-based, Klebsiella pneumoniae. The conditions noted are these: 50 μM final drug concentration; for fold induction at 50 µM: Klebsiella pneumoniae, 3 h.
The subject of assay [4] is A. baumannii strain 98-37-09. Type of assay: cell-based, Acinetobacter baumannii. Conditions: 50 μM final drug concentration; for fold induction at 50 µM: Acinetobacter baumannii, 983709, 3 h.
For assay [5], the system named is P. aeruginosa. In kind it is cell-based, Pseudomonas aeruginosa. Conditions: 50 μM final drug concentration; for fold induction at 50 µM: Pseudomonas aeruginosa, 3 h.
Assay [6] has as its system E. cloacae. In kind it is cell-based, Enterobacter cloacae. Conditions: 50 μM final drug concentration; for fold induction at 50 µM: Enterobacter cloacae, 3 h.
The test system of assay [7] is E. coli. Type of assay: cell-based, Escherichia coli. Conditions: 50 μM final drug concentration; for fold induction at 50 µM: Escherichia coli, 3 h.
The mark [8] stands for this setting: planktonic E. faecium, 384-well, cutoff for positive-scoring molecules 3-fold increase, read-out: AK-based Prestwick Library Screening Results: E. faecium (increase in extracellular AK activity).
The mark [9] stands for this setting: planktonic S. aureus, 384-well, cutoff for positive-scoring molecules 3-fold increase, read-out: AK-based Prestwick Library Screening Results: S. aureus (increase in extracellular AK activity).
The mark [10] stands for this setting: planktonic K. pneumoniae, 384-well, cutoff for positive-scoring molecules 3-fold increase, read-out: AK-based Prestwick Library Screening Results: K. pneumoniae (increase in extracellular AK activity).
Setting [11] is: planktonic A. baumannii, 384-well, cutoff for positive-scoring molecules 3-fold increase, read-out: AK-based Prestwick Library Screening Results: A. baumannii (increase in extracellular AK activity).
Setting [12] is: planktonic P. aeruginosa, 384-well, cutoff for positive-scoring molecules 3-fold increase, read-out: AK-based Prestwick Library Screening Results: P. aeruginosa (increase in extracellular AK activity).
Where [13] appears, read: planktonic E. cloacae, 384-well, cutoff for positive-scoring molecules 3-fold increase, read-out: AK-based Prestwick Library Screening Results: E. cloacae (increase in extracellular AK activity).
The mark [14] stands for this setting: planktonic E. coli, 384-well, cutoff for positive-scoring molecules 3-fold increase, read-out: AK-based Prestwick Library Screening Results: E. coli (increase in extracellular AK activity).
Setting [15] is: planktonic, […], read-out: AK-based Prestwick Library Screening Results, E. faecium (fold increase in extracellular AK activity).
[16] abbreviates: planktonic, […], read-out: AK-based Prestwick Library Screening Results, S. aureus (fold increase in extracellular AK activity).
Setting [17] is: planktonic, […], read-out: AK-based Prestwick Library Screening Results, K. pneumoniae (fold increase in extracellular AK activity).
[18] abbreviates: planktonic, […], read-out: AK-based Prestwick Library Screening Results, A. baumannii (fold increase in extracellular AK activity).
[19] abbreviates: planktonic, […], read-out: AK-based Prestwick Library Screening Results, P. aeruginosa (fold increase in extracellular AK activity).
Where [20] appears, read: planktonic, […], read-out: AK-based Prestwick Library Screening Results, E. cloacae (fold increase in extracellular AK activity).
Setting [21] is: planktonic, […], read-out: AK-based Prestwick Library Screening Results, E. coli (fold increase in extracellular AK activity).
The mark [22] stands for this setting: cutoff for positive-scoring molecules 3-fold increase.

On to `COc1ccc(Cl)cc1C(=O)NCCc1ccc(S(=O)(=O)NC(=O)NC2CCCCC2)cc1` [Glibenclamide], for which the fold induction at 50 µM was 1 in assay [1] (setting [8]); 0.9 in assay [2] (setting [9]); 1.1 in assay [3] (setting [10]); 1.3 in assay [4] (setting [11]); 1.2 in assay [5] (setting [12]); 1.4 in assay [6] (setting [13]). Also, the fold induction at 50 µM in assay [7] (setting [14]) amounted to 1.2.
On to `Cc1ncc(CO)c(CO)c1O` [Pyridoxine hydrochloride], for which the fold induction at 50 µM in assay [1] (setting [15]) came to 1; in assay [2] (setting [16]) it was 1.3; in assay [3] (setting [17]) it was 1.1; in assay [4] (setting [18]), 1.4; in assay [5] (setting [19]), 1.2; in assay [6] (setting [20]) it was 1.7. Moreover, the fold induction at 50 µM in assay [7] (setting [21]) was determined as 1.4.
On to `CCCCN1CCCCC1C(=O)Nc1c(C)cccc1C` (stereo not shown) [Bupivacaine hydrochloride], for which the fold induction at 50 µM in assay [1] (setting [8]) was 1; in assay [2] (setting [9]), 1.1; in assay [3] (setting [10]) it was 1; in assay [4] (setting [11]) it was 1.4; in assay [5] (setting [12]), 1.2; in assay [6] (setting [13]), 1.5. Besides, in assay [7] (setting [14]), the fold induction at 50 µM is 1.3.
As for S(−)Eticlopride hydrochloride, the “AK-based Prestwick Library Screening Results, E. faecium (fold increase in extracellular AK activity)” value in assay [1] (setting [22]) amounted to 1.0. The “AK-based Prestwick Library Screening Results, S. aureus (fold increase in extracellular AK activity)” value in assay [2] (setting [22]) was 1.6. For the same compound, the “AK-based Prestwick Library Screening Results, K. pneumoniae (fold increase in extracellular AK activity)” value in assay [3] (setting [22]) came out at 1.1. Also, in assay [4] (setting [22]), the “AK-based Prestwick Library Screening Results, A. baumannii (fold increase in extracellular AK activity)” value is given as 1.0. In assay [5] (setting [22]), the “AK-based Prestwick Library Screening Results, P. aeruginosa (fold increase in extracellular AK activity)” value is listed as 1.3. In assay [6] (setting [22]), the “AK-based Prestwick Library Screening Results, E. cloacae (fold increase in extracellular AK activity)” value came to 1.8. The “AK-based Prestwick Library Screening Results, E. coli (fold increase in extracellular AK activity)” value in assay [7] (setting [22]) is given as 0.9.
For `CN(C)C(=O)Oc1cccc([N+](C)(C)C)c1` [Neostigmine bromide], the fold induction at 50 µM turned out to be 1 in assay [1] (setting [15]); 1.2 in assay [2] (setting [16]); 1 in assay [3] (setting [17]); 1.3 in assay [4] (setting [18]); 1.1 in assay [5] (setting [19]); 1.2 in assay [6] (setting [20]). Besides, the fold induction at 50 µM in assay [7] (setting [21]) stood at 1.3.
As for `CC(=O)[C@@]1(O)CC[C@H]2[C@@H]3C[C@H](C)C4=CC(=O)C=C[C@]4(C)[C@@]3(F)[C@@H](O)C[C@@]21C` [Fluorometholone], the fold induction at 50 µM came to 1 in assay [1] (cutoff for positive-scoring molecules 3-fold increase, read-out: AK-based Prestwick Library Screening Results, E. faecium (fold increase in extracellular AK activity)); 1.2 in assay [2] (cutoff for positive-scoring molecules 3-fold increase, read-out: AK-based Prestwick Library Screening Results, S. aureus (fold increase in extracellular AK activity)); 1 in assay [3] (cutoff for positive-scoring molecules 3-fold increase, read-out: AK-based Prestwick Library Screening Results, K. pneumoniae (fold increase in extracellular AK activity)); 1.3 in assay [4] (cutoff for positive-scoring molecules 3-fold increase, read-out: AK-based Prestwick Library Screening Results, A. baumannii (fold increase in extracellular AK activity)); 1.1 in assay [5] (cutoff for positive-scoring molecules 3-fold increase, read-out: AK-based Prestwick Library Screening Results, P. aeruginosa (fold increase in extracellular AK activity)); 1.7 in assay [6] (cutoff for positive-scoring molecules 3-fold increase, read-out: AK-based Prestwick Library Screening Results, E. cloacae (fold increase in extracellular AK activity)). Moreover, in assay [7] (cutoff for positive-scoring molecules 3-fold increase, read-out: AK-based Prestwick Library Screening Results, E. coli (fold increase in extracellular AK activity)), the fold induction at 50 µM stood at 1.1.
`CCN(CC)CCNC(=O)c1cc(Cl)c(N)cc1OC` [Metoclopramide monohydrochloride]: the fold induction at 50 µM in assay [1] (setting [8]) stood at 1.2; in assay [2] (setting [9]), 0.9; in assay [3] (setting [10]) it was 0.9; in assay [4] (setting [11]) it was 1.2; in assay [5] (setting [12]) it was 1.1; in assay [6] (setting [13]) it was 1.6. For the same compound, in assay [7] (setting [14]), the fold induction at 50 µM came out at 1.3.
`C[N+]1(C)C[C@H](O)C[C@H]1C(=O)[O-]` [Betonicine]: the fold induction at 50 µM in assay [1] (planktonic, cutoff for positive-scoring molecules 3-fold increase, read-out: AK-based Prestwick Library Screening Results, E. faecium (fold increase in extracellular AK activity)) stood at 0.9; in assay [2] (planktonic, cutoff for positive-scoring molecules 3-fold increase, read-out: AK-based Prestwick Library Screening Results, S. aureus (fold increase in extracellular AK activity)) it was 0.4; in assay [3] (planktonic, cutoff for positive-scoring molecules 3-fold increase, read-out: AK-based Prestwick Library Screening Results, K. pneumoniae (fold increase in extracellular AK activity)), 0.6; in assay [4] (planktonic, cutoff for positive-scoring molecules 3-fold increase, read-out: AK-based Prestwick Library Screening Results, A. baumannii (fold increase in extracellular AK activity)) it was 0.4; in assay [5] (planktonic, cutoff for positive-scoring molecules 3-fold increase, read-out: AK-based Prestwick Library Screening Results, P. aeruginosa (fold increase in extracellular AK activity)), 0.4; in assay [6] (planktonic, cutoff for positive-scoring molecules 3-fold increase, read-out: AK-based Prestwick Library Screening Results, E. cloacae (fold increase in extracellular AK activity)), 0.4. In addition, the fold induction at 50 µM in assay [7] (planktonic, cutoff for positive-scoring molecules 3-fold increase, read-out: AK-based Prestwick Library Screening Results, E. coli (fold increase in extracellular AK activity)) is 0.4.
In the case of `CCN(CC)CC#CCOC(=O)C(O)(c1ccccc1)C1CCCCC1` (stereo not shown) [Oxybutynin chloride], the fold induction at 50 µM in assay [1] (setting [8]) turned out to be 1.1; in assay [2] (setting [9]) it was 1.2; in assay [3] (setting [10]), 0.9; in assay [4] (setting [11]), 1.1; in assay [5] (setting [12]), 1; in assay [6] (setting [13]) it was 1.6. In addition, in assay [7] (setting [14]), the fold induction at 50 µM came to 1.4.
For `O=c1c(O)c(-c2ccc(O)c(O)c2)oc2cc(O)cc(O)c12` [Quercetine dihydrate], the fold induction at 50 µM in assay [1] (planktonic E. faecium, […], read-out: AK-based Prestwick Library Screening Results, E. faecium (increase in extracellular AK activity)) is 0.8; in assay [2] (planktonic S. aureus, […], read-out: AK-based Prestwick Library Screening Results, S. aureus (increase in extracellular AK activity)) it was 0.1; in assay [3] (planktonic K. pneumoniae, […], read-out: AK-based Prestwick Library Screening Results, K. pneumoniae (increase in extracellular AK activity)), 0.6; in assay [4] (planktonic A. baumannii, […], read-out: AK-based Prestwick Library Screening Results, A. baumannii (increase in extracellular AK activity)), 0.4; in assay [5] (planktonic P. aeruginosa, […], read-out: AK-based Prestwick Library Screening Results, P. aeruginosa (increase in extracellular AK activity)) it was 0.6; in assay [6] (planktonic E. cloacae, […], read-out: AK-based Prestwick Library Screening Results, E. cloacae (increase in extracellular AK activity)), 0.9. Further, the fold induction at 50 µM in assay [7] (planktonic E. coli, […], read-out: AK-based Prestwick Library Screening Results, E. coli (increase in extracellular AK activity)) worked out at 0.7.
